Data reported in patent publication US20050233389A1, “Methods and compositions for peptide and protein labeling” (priority 2003, published 2005).

Key:
BirA = BirA (Escherichia coli, UniProt P06709); experiment: Measurement of probe ligation kinetics (HPLC); type: biochemical, E. coli; settings: for initial rate for ligation to synthetic AP: 100 μM AP, 30° C.
Procedure: (§1) HPLC assay for probe ligation to synthetic AP. The synthetic acceptor peptide (AP) with sequence […] (SEQ ID NO: 22) was synthesized by the Tufts University Core Facility. […] Following lyophilization, the peptide was redissolved in water, and the concentration was determined from the absorbance at 280 nm using the calculated extinction coefficient of 5690 M^−1cm^−1. Reaction conditions for the probe ligation to the AP were as follows: 50 mM bicine pH 8.3, 5 mM Mg(OAc)2, 4 mM ATP, 100 μM AP, 1-2 μM BirA, and 1 mM probe (either biotin or racemic ketone 1). Reactions were incubated at 30° C. for 1-2 hours, then quenched with addition of 45 mM EDTA. Reactions were analyzed on a reverse-phase HPLC column (Microsorb-MV 300 C18). Biotin ligation reactions were analyzed using a gradient of 10-43% acetonitrile/water with 0.1% TFA over 20 minutes (flow rate 1.0 mL/min); retention times were 8.2 minutes for biotin, 16.3 minutes for the AP, and 17.7 minutes for the AP-biotin conjugate. Ketone 1 ligation reactions were analyzed using a gradient of 10-46% acetonitrile/water with 0.1 % TFA over 25 minutes (flow rate 1.0 mL/min); retention times were 16.4 minutes for ketone 1, 17.9 minutes for the AP, and 22.0 minutes for the AP-ketone 1 conjugate. For MALDI-TOF analysis, the product peak was collected, diluted with matrix solution (saturated α-cyano 4-hydroxycinnamic acid in 50% acetonitrile/water with 0.05% TFA), and spotted onto the sample target. Positive-ion MALDI-TOF data was acquired in reflector mode with external calibration.
Measurement of probe ligation kinetics. For kinetic measurements, the reaction conditions were the same as above except that 0.091 μM BirA was used, and for the ketone ligation reactions, 2 mM of racemic ketone 1 was used. A 400 μL reaction was initiated by addition of BirA and incubated at 30° C. At various timepoints, a 40 μL aliquot was removed and quenched with EDTA. Reactions were analyzed by reverse-phase HPLC as described above. The area ratios of AP and AP-probe conjugate peaks were converted to concentrations of AP-probe conjugate using a calibration curve generated by mixing known ratios of AP and AP-probe conjugate. The concentration of AP-probe conjugate was plotted versus time, and the reported initial rate was the slope of the line fit to the linear region of product synthesis.

streptavidin = streptavidin (Streptomyces avidinii, UniProt P22629); experiment: streptavidin binding to ketone 1; settings: separate experiments; data not shown
wild-type BirA = wild-type BirA (Escherichia coli, UniProt P06709); experiment: HPLC assay for probe ligation to synthetic AP; type: biochemical, E. coli; settings: enantiomers separated by chiral HPLC; data not shown
Procedure: as §1, with “For MALDI-TOF analysis, the product peak was collected, diluted with matrix solution (saturated α-cyano 4-hydroxycinnamic acid in 50% acetonitrile/water with 0.05% TFA), and spotted onto the sample target. Positive-ion MALDI-TOF data was acquired in reflector mode with external calibration.” left out

Chain of BirA (P06709 whole entry): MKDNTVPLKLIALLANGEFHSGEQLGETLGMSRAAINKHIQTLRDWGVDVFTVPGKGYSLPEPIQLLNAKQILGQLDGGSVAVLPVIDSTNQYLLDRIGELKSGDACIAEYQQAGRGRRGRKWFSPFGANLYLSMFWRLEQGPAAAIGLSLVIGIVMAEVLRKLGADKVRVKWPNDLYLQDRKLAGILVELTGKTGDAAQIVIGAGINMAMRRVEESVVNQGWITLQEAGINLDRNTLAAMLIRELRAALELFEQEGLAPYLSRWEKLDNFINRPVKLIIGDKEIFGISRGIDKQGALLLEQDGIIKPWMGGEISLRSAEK
Chain of streptavidin (P22629 25-183): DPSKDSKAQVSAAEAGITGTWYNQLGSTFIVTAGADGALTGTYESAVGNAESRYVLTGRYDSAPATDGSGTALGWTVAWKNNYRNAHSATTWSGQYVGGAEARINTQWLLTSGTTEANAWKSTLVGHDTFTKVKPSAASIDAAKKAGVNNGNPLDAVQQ
Chain of wild-type BirA (P06709 whole entry): as the sequence (P06709 whole entry) above

O=C(O)CCCC[C@@H]1SC[C@@H]2NC(=O)N[C@@H]21 [biotin, reference compound]
conversion until which the ligation rate remained constant (BirA; 0.091 μM BirA): > 50% | initial rate for ligation to synthetic AP (BirA; 1 mM biotin, 0.091 μM BirA): 0.954 ± 0.018 µM/min

O=C(O)CCCC[C@@H]1SC[C@@H]2CC(=O)C[C@@H]21 [ketone 1]
enzyme turnovers after which the ligation rate slowed markedly (BirA; 0.091 μM BirA): ~100 enzyme turnovers | initial rate for ligation to synthetic AP (BirA; 2 mM racemic ketone 1, 0.091 μM BirA): 0.258 ± 0.024 µM/min | initial ligation rate, fold less than that for biotin ligation (BirA; ketone 1 vs biotin, identical conditions): 3.7 fold | binding of streptavidin to the probe itself (streptavidin): does not bind | acceptance of separated enantiomers by BirA (wild-type BirA): Only one enantiomer was accepted
